How the values were obtained:
[1] = tested on: LAPC4 prostate cancer cells, which express the AKT1 E17K allele; assay: Antiproliferative effects in LAPC4 cells (CellTiter Glo, 72 h); type: cell-based; details: Homo sapiens, LAPC4, 72 h, read-out: LAPC4 proliferation IC50: GeoMean IC50
Procedure: Antiproliferative effects in LAPC4 cells. LAPC4 prostate cancer cells (Klein, K. A. et al. Nat Med 1997, 3, 402-408), which express the AKT1 E17K allele, were grown in IMDM media (Hyclone) supplemented with 12% FBS+1% P/S. To assess compound effects on growth, 1,000 cells/well were seeded in 384 well assay plates, incubated with compound dilutions dissolved in DMSO. After 72 h, intracellular ATP content was assessed with CellTiter Glo reagent (Promega) according to the manufacturer's instructions. IC50 values were calculated by fitting luminescence values to a log(inhibitor) vs. response Hill equation.

AKT1 E17K = biological target: T1, AKT1 E17K (Homo sapiens, UniProt P31749, E17K); assay: Live cell target engagement by NanoBRET competitive probe displacement, AKT1 E17K; type: binding; details: transfected HEK293 cells, 2 h at 37° C., read-out: AKT1 E17K IC50: GeoMean IC50
T1 construct: expressed in transfected cells; host or cells: HEK293
T1 sequence (P31749 whole entry E17K): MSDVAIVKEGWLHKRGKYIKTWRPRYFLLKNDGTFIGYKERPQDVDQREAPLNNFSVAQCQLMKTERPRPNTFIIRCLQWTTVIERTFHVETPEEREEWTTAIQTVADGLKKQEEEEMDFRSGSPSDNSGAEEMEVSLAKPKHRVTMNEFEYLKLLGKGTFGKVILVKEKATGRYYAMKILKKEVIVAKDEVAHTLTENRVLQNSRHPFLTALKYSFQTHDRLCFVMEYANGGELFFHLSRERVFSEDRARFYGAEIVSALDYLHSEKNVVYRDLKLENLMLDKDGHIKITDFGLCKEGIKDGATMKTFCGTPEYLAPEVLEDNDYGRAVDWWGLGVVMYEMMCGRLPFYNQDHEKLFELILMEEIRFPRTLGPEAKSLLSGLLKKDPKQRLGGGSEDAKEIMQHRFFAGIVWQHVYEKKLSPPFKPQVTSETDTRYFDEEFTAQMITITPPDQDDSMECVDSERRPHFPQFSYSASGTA

AKT1 WT = biological target: T2, AKT1 WT (Homo sapiens, UniProt P31749); assay: Live cell target engagement by NanoBRET competitive probe displacement, AKT1 WT; type: binding; details: transfected HEK293 cells, 2 h at 37° C., read-out: AKT1 WT IC50: GeoMean IC50
T2 construct: expressed in transfected cells; host or cells: HEK293
T2 sequence (P31749 whole entry): as the sequence (P31749 whole entry E17K) above, with K17E counted along it

AKT2 = biological target: T3, AKT2 (Homo sapiens, UniProt P31751); assay: Live cell target engagement by NanoBRET competitive probe displacement, AKT2; type: binding; details: transfected HEK293 cells, 2 h at 37° C., read-out: AKT2 IC50: GeoMean IC50
T3 construct: expressed in transfected cells; host or cells: HEK293
T3 sequence (P31751 whole entry): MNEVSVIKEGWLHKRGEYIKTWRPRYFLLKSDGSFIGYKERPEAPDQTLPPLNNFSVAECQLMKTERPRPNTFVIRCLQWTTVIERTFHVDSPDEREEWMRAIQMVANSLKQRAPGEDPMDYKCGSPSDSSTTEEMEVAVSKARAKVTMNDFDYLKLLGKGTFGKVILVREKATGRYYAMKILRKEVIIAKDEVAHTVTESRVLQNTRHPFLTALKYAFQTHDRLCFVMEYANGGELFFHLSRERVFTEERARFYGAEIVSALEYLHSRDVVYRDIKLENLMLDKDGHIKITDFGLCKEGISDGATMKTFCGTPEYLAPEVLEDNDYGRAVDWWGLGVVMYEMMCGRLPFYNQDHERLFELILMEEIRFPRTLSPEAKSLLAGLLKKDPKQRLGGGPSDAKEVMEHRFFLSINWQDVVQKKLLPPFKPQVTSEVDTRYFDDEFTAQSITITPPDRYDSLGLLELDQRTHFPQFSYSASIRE

Cn1cc(-c2ccc3nc(-c4cccnc4N)n(-c4ccc5c(c4)CC[C@@H]5NC(=O)c4ccc(O)c(C=O)c4)c3n2)cn1 [Example 28, (S)—N-(5-(2-(2-aminopyridin-3-yl)-5-(1-methyl-1H-pyrazol-4-yl)-3H-imidazo[4,5-b]pyridin-3-yl)-2,3-dihydro-1H-inden-1-yl)-3-formyl-4-hydroxybenzamide]
IC50 [1]: 10 to 100 nM | IC50 (AKT1 E17K): 10 to 100 nM | IC50 (AKT1 WT): 10 to 100 nM | IC50 (AKT2): 100 to 2000 nM

Nc1ncccc1-c1nc2ccc(-n3cc(F)cn3)nc2n1-c1ccc2c(c1)CC[C@@H]2NC(=O)c1ccc(O)c(C=O)c1 [Example 76, N-[(1S)-5-[2-(2-aminopyridin-3-yl)-5-(4-fluoropyrazol-1-yl)imidazo[4,5-b]pyridin-3-yl]-2,3-dihydro-1H-inden-1-yl]-3-formyl-4-hydroxybenzamide]
IC50 [1]: 100 to 2000 nM | IC50 (AKT1 E17K): 10 to 100 nM | IC50 (AKT1 WT): 100 to 2000 nM | IC50 (AKT2): 100 to 2000 nM

Cc1cc(-n2cccn2)nc2c1nc(-c1cccnc1N)n2-c1ccc2c(c1)CC[C@@H]2NC(=O)c1ccc(O)c(C=O)c1 [Example 131, (S)—N-(5-(2-(2-aminopyridin-3-yl)-7-methyl-5-(1H-pyrazol-1-yl)-3H-imidazo[4,5-b]pyridin-3-yl)-2,3-dihydro-1H-inden-1-yl)-3-formyl-4-hydroxybenzamide]
IC50 [1]: 10 to 100 nM | IC50 (AKT1 E17K): 10 to 100 nM | IC50 (AKT1 WT): 10 to 100 nM | IC50 (AKT2): 10 to 100 nM

Nc1ncccc1-c1nc2ccc(-n3cc4c(n3)CNC4)nc2n1-c1ccc2c(c1)CC[C@@H]2NC(=O)c1ccc(O)c(C=O)c1 [Example 160, N-[(1S)-5-[2-(2-aminopyridin-3-yl)-5-{4H,5H,6H-pyrrolo[3,4-c]pyrazol-2-yl}imidazo[4,5-b]pyridin-3-yl]-2,3-dihydro-1H-inden-1-yl]-3-formyl-4-hydroxybenzamide]
IC50 [1]: ≥ 2000 nM | IC50 (AKT1 E17K): 100 to 2000 nM | IC50 (AKT1 WT): 100 to 2000 nM | IC50 (AKT2): 100 to 2000 nM

Nc1ncccc1-c1nc2ccc(-c3ccccc3)nc2n1-c1ccc2c(c1)CC[C@@H]2NC(=O)c1cc(C=O)c2[nH]ncc2c1 [Example 35, N-[(1S)-5-[2-(2-aminopyridin-3-yl)-5-phenylimidazo[4,5-b]pyridin-3-yl]-2,3-dihydro-1H-inden-1-yl]-7-formyl-1H-indazole-5-carboxamide]
IC50 [1]: < 10 nM | IC50 (AKT1 E17K): < 10 nM | IC50 (AKT1 WT): 10 to 100 nM | IC50 (AKT2): 10 to 100 nM

N#Cc1cc(-n2cccn2)nc2c1nc(-c1cccnc1N)n2-c1ccc2c(c1)CC[C@@H]2NC(=O)c1ccc(O)c(C=O)c1 [Example 209, N-[(1S)-5-[2-(2-aminopyridin-3-yl)-7-cyano-5-(pyrazol-1-yl)imidazo[4,5-b]pyridin-3-yl]-2,3-dihydro-1H-inden-1-yl]-3-formyl-4-hydroxybenzamide]
IC50 [1]: 10 to 100 nM | IC50 (AKT1 E17K): 10 to 100 nM | IC50 (AKT1 WT): 10 to 100 nM | IC50 (AKT2): 100 to 2000 nM

Nc1ncccc1-c1nc2ccc(-c3ccccc3)nc2n1-c1ccc2c(c1)CC[C@@H]2NC(=O)c1cc(C=O)c2[nH]cnc2c1 [Example 162, N-[(1S)-5-[2-(2-aminopyridin-3-yl)-5-phenylimidazo[4,5-b]pyridin-3-yl]-2,3-dihydro-1H-inden-1-yl]-7-formyl-1H-1,3-benzodiazole-5-carboxamide]
IC50 [1]: 10 to 100 nM | IC50 (AKT1 E17K): < 10 nM | IC50 (AKT1 WT): < 10 nM | IC50 (AKT2): < 10 nM

N#Cc1ccn(-c2ccc3nc(-c4cccnc4N)n(-c4ccc5c(c4)CC[C@@H]5NC(=O)c4ccc(O)c(C=O)c4)c3n2)n1 [Example 108, N-[(1S)-5-[2-(2-aminopyridin-3-yl)-5-(3-cyanopyrazol-1-yl)imidazo[4,5-b]pyridin-3-yl]-2,3-dihydro-1H-inden-1-yl]-3-formyl-4-hydroxybenzamide]
IC50 [1]: 100 to 2000 nM | IC50 (AKT1 E17K): 10 to 100 nM | IC50 (AKT1 WT): 100 to 2000 nM | IC50 (AKT2): ≥ 2000 nM

Nc1ncccc1-c1nc2cccnc2n1-c1ccc2c(c1)CC[C@@H]2NC(=O)c1ccc(O)c(C=O)c1 [Example 15, N-[(1S)-5-[2-(2-aminopyridin-3-yl)imidazo[4,5-b]pyridin-3-yl]-2,3-dihydro-1H-inden-1-yl]-3-formyl-4-hydroxybenzamide]
IC50 [1]: 100 to 2000 nM | IC50 (AKT1 E17K): 10 to 100 nM | IC50 (AKT1 WT): 100 to 2000 nM | IC50 (AKT2): ≥ 2000 nM

Nc1ncccc1-c1nc2ccc(-n3cccn3)nc2n1-c1ccc2c(c1)CC[C@@H]2NC(=O)c1cc(C=O)c2[nH]ncc2c1 [Example 66, N-[(1S)-5-[2-(2-aminopyridin-3-yl)-5-(pyrazol-1-yl)imidazo[4,5-b]pyridin-3-yl]-2,3-dihydro-1H-inden-1-yl]-7-formyl-1H-indazole-5-carboxamide]
IC50 [1]: 10 to 100 nM | IC50 (AKT1 E17K): < 10 nM | IC50 (AKT1 WT): 10 to 100 nM | IC50 (AKT2): 100 to 2000 nM

CN(C)Cc1cc(C(=O)N[C@H]2CCc3cc(-n4c(-c5cccnc5N)nc5ccc(-n6cccn6)nc54)ccc32)cc(C=O)c1O [Example 192, N-[(1S)-5-[2-(2-aminopyridin-3-yl)-5-(pyrazol-1-yl)imidazo[4,5-b]pyridin-3-yl]-2,3-dihydro-1H-inden-1-yl]-3-[(dimethylamino)methyl]-5-formyl-4-hydroxybenzamide]
IC50 [1]: ≥ 2000 nM | IC50 (AKT1 E17K): 100 to 2000 nM | IC50 (AKT1 WT): 100 to 2000 nM | IC50 (AKT2): ≥ 2000 nM

Nc1ncccc1-c1nc2ccc(-n3cccn3)nc2n1-c1ccc2c(c1)CC[C@@H]2NCc1cc(C=O)c(O)cc1F [Example 239, 5-({[(1S)-5-[2-(2-aminopyridin-3-yl)-5-(pyrazol-1-yl)imidazo[4,5-b]pyridin-3-yl]-2,3-dihydro-1H-inden-1-yl]amino}methyl)-4-fluoro-2-hydroxybenzaldehyde]
IC50 [1]: ≥ 2000 nM | IC50 (AKT1 E17K): 10 to 100 nM | IC50 (AKT1 WT): 10 to 100 nM | IC50 (AKT2): 100 to 2000 nM

Nc1cc(O)c(C=O)cc1C(=O)N[C@H]1CCc2cc(-n3c(-c4cccnc4N)nc4ccc(-n5cccn5)nc43)ccc21 [Example 237, 2-amino-N-[(1S)-5-[2-(2-aminopyridin-3-yl)-5-(pyrazol-1-yl)imidazo[4,5-b]pyridin-3-yl]-2,3-dihydro-1H-inden-1-yl]-5-formyl-4-hydroxybenzamide]
IC50 [1]: 100 to 2000 nM | IC50 (AKT1 E17K): 10 to 100 nM | IC50 (AKT1 WT): 10 to 100 nM | IC50 (AKT2): 100 to 2000 nM

Nc1ncccc1-c1nc2c(OC(F)F)cc(-n3cccn3)nc2n1-c1ccc2c(c1)CC[C@@H]2NC(=O)c1ccc(O)c(C=O)c1 [Example 225, N-[(1S)-5-[2-(2-aminopyridin-3-yl)-7-(difluoromethoxy)-5-(pyrazol-1-yl)imidazo[4,5-b]pyridin-3-yl]-2,3-dihydro-1H-inden-1-yl]-3-formyl-4-hydroxybenzamide]
IC50 [1]: 10 to 100 nM | IC50 (AKT1 E17K): 10 to 100 nM | IC50 (AKT1 WT): 10 to 100 nM | IC50 (AKT2): 100 to 2000 nM

C#Cc1ccc2nc(-c3cccnc3N)n(-c3ccc4c(c3)CC[C@@H]4NC(=O)c3ccc(O)c(C=O)c3)c2n1 [Example 50, N-[(1S)-5-[2-(2-aminopyridin-3-yl)-5-ethynylimidazo[4,5-b]pyridin-3-yl]-2,3-dihydro-1H-inden-1-yl]-3-formyl-4-hydroxybenzamide]
IC50 [1]: 100 to 2000 nM | IC50 (AKT1 E17K): 10 to 100 nM | IC50 (AKT1 WT): 100 to 2000 nM | IC50 (AKT2): ≥ 2000 nM

Nc1ncccc1-c1nc2ccc(-c3ncc[nH]3)nc2n1-c1ccc2c(c1)CC[C@@H]2NC(=O)c1ccc(O)c(C=O)c1 [Example 194, N-[(1S)-5-[2-(2-aminopyridin-3-yl)-5-(1H-imidazol-2-yl)imidazo[4,5-b]pyridin-3-yl]-2,3-dihydro-1H-inden-1-yl]-3-formyl-4-hydroxybenzamide]
IC50 [1]: 100 to 2000 nM | IC50 (AKT1 E17K): 10 to 100 nM | IC50 (AKT1 WT): 100 to 2000 nM | IC50 (AKT2): 100 to 2000 nM

COc1cc(F)c(C(=O)N[C@H]2CCc3cc(-n4c(-c5cccnc5N)nc5ccc(-n6cccn6)nc54)ccc32)cc1C=O [Example 236, N-[(1S)-5-[2-(2-aminopyridin-3-yl)-5-(pyrazol-1-yl)imidazo[4,5-b]pyridin-3-yl]-2,3-dihydro-1H-inden-1-yl]-2-fluoro-5-formyl-4-methoxybenzamide]
IC50 [1]: 100 to 2000 nM | IC50 (AKT1 E17K): 10 to 100 nM | IC50 (AKT1 WT): < 10 nM | IC50 (AKT2): 10 to 100 nM

Nc1ncccc1-c1nc2ccc(-c3ccccc3)nc2n1-c1ccc2c(c1)CC[C@@H]2NC(=O)c1cc(Cl)c(O)c(C=O)c1 [Example 11, N-[(1S)-5-[2-(2-aminopyridin-3-yl)-5-phenylimidazo[4,5-b]pyridin-3-yl]-2,3-dihydro-1H-inden-1-yl]-3-chloro-5-formyl-4-hydroxybenzamide]
IC50 [1]: 100 to 2000 nM | IC50 (AKT1 E17K): 10 to 100 nM | IC50 (AKT1 WT): 10 to 100 nM | IC50 (AKT2): 100 to 2000 nM

Nc1ncccc1-c1nc2ccc(-c3ccccc3)nc2n1-c1ccc2c(c1)CC[C@@H]2NC(=O)c1cc(C=O)c(O)cn1 [Example 40, N-[(1S)-5-[2-(2-aminopyridin-3-yl)-5-phenylimidazo[4,5-b]pyridin-3-yl]-2,3-dihydro-1H-inden-1-yl]-4-formyl-5-hydroxypyridine-2-carboxamide]
IC50 [1]: ≥ 2000 nM | IC50 (AKT1 E17K): ≥ 2000 nM | IC50 (AKT1 WT): 100 to 2000 nM | IC50 (AKT2): ≥ 2000 nM

Nc1ncccc1-c1nc2ccc(-n3ncc4cccnc43)nc2n1-c1ccc2c(c1)CC[C@@H]2NC(=O)c1cc(C=O)c(O)c(F)c1F [Example 172, (S)—N-(5-(2-(2-aminopyridin-3-yl)-5-(1H-pyrazolo[3,4-b]pyridin-1-yl)-3H-imidazo[4,5-b]pyridin-3-yl)-2,3-dihydro-1H-inden-1-yl)-2,3-difluoro-5-formyl-4-hydroxybenzamide]
IC50 [1]: 10 to 100 nM | IC50 (AKT1 E17K): 10 to 100 nM | IC50 (AKT1 WT): 10 to 100 nM | IC50 (AKT2): 100 to 2000 nM
